This note sets out measurements from US11447494B2, “Tricyclic amine compounds as CDK2 inhibitors” (Incyte Corporation, priority 2019, dated 2022).

Each structure is given as a SMILES string. pIC50: −log10 of the molar value.

One assay has as its target CDK2/Cyclin E1 (Homo sapiens (Human), UniProt P24941). Description: CDK2/Cyclin E1 HTRF enzyme activity assay. Type of assay: biochemical. Conditions: 1 mM ATP. The method, then: CDK2/Cyclin E1 enzyme activity assays utilize full-length human CDK2 co-expressed as N-terminal GST-tagged protein with FLAG-Cyclin E1 in a baculovirus expression system (Carna Product Number 04-165). Assays are conducted in white 384-well polystyrene plates in a final reaction volume of 8 μL. CDK2/Cyclin E1 (0.25 nM) is incubated with compounds (40 nL serially diluted in DMSO) in the presence of ATP (50 μM or 1 mM) and 50 nM ULight™-labeled eIF4E-binding protein 1 (THR37/46) peptide (PerkinElmer) in assay buffer (containing 50 mM HEPES pH 7.5, 1 mM EGTA, 10 mM MgCl2, 2 mM DTT, 0.05 mg/mL BSA, and 0.01% Tween 20) for 60 minutes at room temperature. The reactions are stopped by the addition of EDTA and Europium-labeled anti-phospho-4E-BP1 antibody (PerkinElmer), for a final concentration of 15 mM and 1.5 nM, respectively. HTRF signals are read after 1 hour at room temperature on a PHERAstar FS plate reader (BMG Labtech). Data is analyzed with IDBS XLFit and GraphPad Prism 5.0 software using a three or four parameter dose response curve to determine IC50 for each compound.
A general note: In TR-FRET formats the signal depends on donor and acceptor labels being close together.

The test system of assay [1] is CCNE1 amplified COV318 cells. The experiment in a line: Cell cycle analysis by FACS in COV318 cells after p16 or control siRNA. The following applies: 100 nM, 16 hours. Type of assay: cell-based, human. The method, then:
To confirm the role of p16 in CDK2-sensitivity of CCNE-amplified cells, COV318 cells were treated with control or p16-specific siRNA.
(§1) Bulk DNA was stained with DAPI. Compound-treated and DMSO treated control cells were acquired with CytoFlex (Beckman Coulter) and were analyzed using the FlowJo software. For cell cycle analysis of cells with siRNA knockdown, 72 hours after siRNA transfection, cells exposed to […] for 3 hours before detection of Click-iT Alexa Fluor® 647 azide kit.
(In general: Flow cytometry measures light scatter and fluorescence of single cells or particles in a stream.)

Assay [2] concerns CCNE1-amplified cell lines (COV318, OVCAR3). The experiment in a line: Cell cycle analysis by FACS in CCNE1-amplified cell lines. Type of assay: cell-based, human. The method, then: (§2) The effect of CDK4/6-inhibition in CCNE1-amplified versus CCNE1-non-amplified cell lines was evaluated.
(§3) A similar experiment was performed in a larger set of CCNE1-amplified cell lines (COV318 and OVCAR3) and CCNE1-non-amplified cell lines (COV504, OV56, and Igrov1) (FIG. 6).
as §1

Assay [3] relates to Rb phosphorylation at S780 in CCNE1-non-amplified cell lines (COV504 and OV56). The experiment in a line: Western blot of Rb phosphorylation at S780 in CCNE1-non-amplified cell lines. Conditions: 1 or 15 hours, various doses. Type of assay: cell-based, human. The method, then:
The effect of CDK4/6-inhibition on Rb phosphorylation at S780 in CCNE1-amplified versus CCNE1-non-amplified cell lines was evaluated. […] One or 15 hours after treatment, the cells were harvested and total protein was extracted and analyzed by western blot (FIG. 8).
Whole cell extracts were prepared using RIPA buffer (Thermo Scientific, 89900) with a Halt Protease and Phosphatase Inhibitor Cocktail (Thermo Scientific, 78440). Protein concentration was quantified with a BCA Protein Assay Kit (Thermo Scientific, 23225) and […] of protein lysates were loaded for SDS-PAGE using precast gradient gels (Bio-Rad, Hercules, No. 456-1094). Samples were diluted in 5× Laemmli buffer (300 mM Tris-HCl pH 6.8, 10% SDS (w/v), 5% 2-mercaptoethanol, 25% glycerol (v/v), 0.1% bromophenol blue w/v) and boiled for 5 minutes. […] of proteins were separated by 8-15% SDS-PAGE and transferred onto polyvinylidene fluoride (PVDF) membranes. Unspecific binding sites on the PVDF membranes were blocked with 5% non-fat milk in TBST (20 mM Tris-HCl, pH 7.6, 137 mM NaCl, 1% Tween-20). […] Images were captured by Luminescence/Fluorescence Imaging System Odyssey CLx Imager (LI-COR).
(In general: A western blot detects proteins with antibodies after separation by electrophoresis.)

Assay [4] relates to CCNE1-non-amplified cell lines (COV504, OV56, Igrov1). The experiment in a line: Cell cycle analysis by FACS in CCNE1-non-amplified cell lines. Type of assay: cell-based, human. Here is the method:
as §2, §3, §1

`Cc1nc2c(n1C)-c1nc(Nc3ccc(S(=O)(=O)NCC4CCOC4)cc3F)ncc1CC2` (stereo not shown) [Example 12, 4-((1,2-Dimethyl-4,5-dihydro-1H-imidazo[4,5-h]quinazolin-8-yl)amino)-3-fluoro-N-((tetrahydrofuran-3-yl)methyl)benzenesulfonamide] gave a pIC50 against CDK2/Cyclin E1 of at least 7.30.

On to `Cc1nc2c(n1C)-c1nc(Nc3ccc(S(=O)(=O)N(C)C)cc3)ncc1CC2` [Example 2, 4-((1,2-Dimethyl-4,5-dihydro-1H-imidazo[4,5-h]quinazolin-8-yl)amino)-N,N-dimethylbenzenesulfonamide], for which the pIC50 at CDK2/Cyclin E1 is at least 7.30.

`C[C@@]1(O)CCC[C@H]1n1c(=O)ccc2cnc(NC3CCN(S(C)(=O)=O)CC3)nc21` [Compound A, 8-((1R,2R)-2-hydroxy-2-methylcyclopentyl)-2-((1-(methylsulfonyl)piperidin-4-yl)amino)pyrido[2,3-d]pyrimidin-7(8H)-one]: the “percentage of S phase cells” value is recorded as “significantly decreased” in assay [1] (control siRNA-treated cells) and “not significantly decreased” in assay [1] (p16 knocked down cells, vs DMSO).

Consider `CC(=O)c1c(C)c2cnc(Nc3ccc(N4CCNCC4)cn3)nc2n(C2CCCC2)c1=O` [palbociclib], for which the “percentage of cells at the S phase, compared to DMSO” value is given as “not significantly different” in assay [2] (COV318 and OVCAR3, 16 hours after treatment); “decreased in CCNE1-non-amplified cell lines in a dose-dependent fashion” in assay [4] (COV504, OV56, Igrov1, 16 hours after treatment). Moreover, the “inhibition of proliferation (cell cycle analysis)” value in assay [2] (OVCAR3 cells, 16 hours, increasing concentrations) is “not in CCNE1-amplified cells”; in assay [4] (COV504 cells, 16 hours, increasing concentrations) it was “dose-dependent inhibition of the proliferation”. Besides, in assay [3], the “Rb phosphorylation at S780” value was “blocked Rb phosphorylation at S780”.

Regarding `Cc1nc2c(n1C)-c1nc(Nc3ccc(S(=O)(=O)NC(C)C)cc3)ncc1CC2` [Example 6, 4-((1,2-Dimethyl-4,5-dihydro-1H-imidazo[4,5-h]quinazolin-8-yl)amino)-N-isopropylbenzenesulfonamide], the pIC50 on CDK2/Cyclin E1 was at least 7.30.

As for `Cc1nc2c(n1C)-c1nc(Nc3ccc(S(C)(=O)=O)cc3)ncc1CC2` [Example 3, 1,2-Dimethyl-N-(4-(methylsulfonyl)phenyl)-4,5-dihydro-1H-imidazo[4,5-h]quinazolin-8-amine], at CDK2/Cyclin E1, the negative logarithm of the IC50 (pIC50) was at least 7.30.

`NS(=O)(=O)c1ccc(Nc2ncc3c(n2)-n2ccnc2CO3)cc1` [Example 9, 4-((6H-Imidazo[1,2-d]pyrimido[5,4-b][1,4]oxazin-2-yl)amino)benzenesulfonamide]: the pIC50 against CDK2/Cyclin E1 is at least 7.30.

As to `Cc1nc2c(n1C)-c1nc(Nc3ccc(S(=O)(=O)NCCN(C)C)cc3F)ncc1CC2` [Example 10, 4-((1,2-Dimethyl-4,5-dihydro-1H-imidazo[4,5-h]quinazolin-8-yl)amino)-N-(2-(dimethylamino)ethyl)-3-fluorobenzenesulfonamide], the pIC50 on CDK2/Cyclin E1 was at least 7.30.

In turn, `CNS(=O)(=O)c1ccc(Nc2ncc3c(n2)-c2c(nc(C)n2C(C)C)CC3)cc1` [Example 1, 4-((1-Isopropyl-2-methyl-4,5-dihydro-1H-imidazo[4,5-h]quinazolin-8-yl)amino)-N-methylbenzenesulfonamide] gave a pIC50 against CDK2/Cyclin E1 of at least 7.30.

Take `CNS(=O)(=O)c1ccc(Nc2ncc3c(n2)-c2c(nc(C)n2C)CC3)cc1` [Example 4, 4-((1,2-Dimethyl-4,5-dihydro-1H-imidazo[4,5-h]quinazolin-8-yl)amino)-N-methylbenzenesulfonamide]: at CDK2/Cyclin E1, the pIC50 was at least 7.30.

On to `NS(=O)(=O)c1ccc(Nc2ncc3c(n2)-n2ccnc2CC3)cc1` [Example 8, 4-((5,6-Dihydroimidazo[1′,2′:1,6]pyrido[2,3-d]pyrimidin-2-yl)amino)benzenesulfonamide], for which the negative-log IC50 (pIC50) against CDK2/Cyclin E1 was at least 7.30.

`Cc1nc2c(n1C)-c1nc(Nc3ccc(S(=O)(=O)NCCCN(C)C)cc3F)ncc1CC2` [Example 11, 4-((1,2-Dimethyl-4,5-dihydro-1H-imidazo[4,5-h]quinazolin-8-yl)amino)-N-(3-(dimethylamino)propyl)-3-fluorobenzenesulfonamide] gave a negative logarithm of the IC50 (pIC50) against CDK2/Cyclin E1 of at least 7.30.

`Cc1nc2c(n1C)-c1nc(Nc3ccc(S(=O)(=O)NCCO)cc3)ncc1CC2` [Example 7, 4-((1,2-Dimethyl-4,5-dihydro-1H-imidazo[4,5-h]quinazolin-8-yl)amino)-N-(2-hydroxyethyl)benzenesulfonamide] had a pIC50 against CDK2/Cyclin E1 of at least 7.30.

At CDK2/Cyclin E1, `CNS(=O)(=O)c1ccc(Nc2ncc3c(n2)-c2c(nc(C)n2C)CC3)c(F)c1` [Example 5, 4-((1,2-Dimethyl-4,5-dihydro-1H-imidazo[4,5-h]quinazolin-8-yl)amino)-3-fluoro-N-methylbenzenesulfonamide] gave a pIC50 of at least 7.30.

As usually defined, the pIC50 is −log10 of the IC50, conventionally taken in molar units. A higher pIC50 goes with a low IC50.
